From ChEMBL document CHEMBL4000182, “Structure-activity relationships of benzothiazole GPR35 antagonists” (Bioorg Med Chem Lett, 2017)

These compounds were tested against T1, G-protein coupled receptor 35 (Homo sapiens, UniProt Q9HC97) (assay: Antagonist activity at GPR35 (unknown origin)).
T1 sequence (Q9HC97 whole entry): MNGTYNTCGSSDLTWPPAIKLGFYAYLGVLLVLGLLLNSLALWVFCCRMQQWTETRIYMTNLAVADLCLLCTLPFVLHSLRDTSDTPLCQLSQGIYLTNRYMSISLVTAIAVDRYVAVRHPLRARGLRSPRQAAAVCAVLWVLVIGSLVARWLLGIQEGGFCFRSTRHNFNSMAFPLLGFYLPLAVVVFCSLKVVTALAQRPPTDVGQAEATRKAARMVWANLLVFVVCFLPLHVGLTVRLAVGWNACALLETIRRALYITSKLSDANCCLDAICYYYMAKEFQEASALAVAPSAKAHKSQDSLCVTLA

| IC50 [µM] | Compound |
| --- | --- |
| 39 | O=C(O)c1cc(=O)c2ccccc2[nH]1 [TRANSTORINE] |

The compounds below were run against T1, G-protein coupled receptor 35 (assay: Antagonist activity at human N-terminal HA-tagged GPR35a expressed in human U2OS cells co-expressing GFP-fused beta arrestin-2 assessed as inhibition of agonist induced redistribution of GFP-fused beta arrestin-2 preincubated for 15 mins followed by agonist addition by fluorescence assay).
Format: cell-based

| EC50 [µM] | Compound |
| --- | --- |
| 0.55 | O=C(Nc1ccc2nc(SCc3ccc(Cl)cc3)sc2c1)c1ccccc1C(=O)N1CCOCC1 |

What follows are compounds tested against T1, G-protein coupled receptor 35 (assay: Antagonist activity at HA tagged GPR35a (unknown origin) expressed in human U2OS cells co-expressing GFP-fused beta arrestin-2 assessed as inhibition of zaprinast induced effect).
Format: cell-based

| Compound | IC50 [µM] |
| --- | --- |
| O=C(Nc1ccc2nc([S@+]([O-])Cc3ccc(Cl)cc3)sc2c1)c1ccccc1C(=O)N1CCOCC1 | > 30 |
| CC(Sc1nc2ccc(NC(=O)c3ccccc3C(=O)N3CCOCC3)cc2s1)c1ccc(Cl)cc1 (stereo not drawn) | 17 |
| O=C(Nc1ccc2nc(SCc3ccc(Cl)cc3)sc2c1)c1ccccc1C(=O)N1CCCC1 | > 30 |
| O=C(Nc1ccc2nc(SCc3ccc(Cl)cc3)sc2c1)c1ccccc1C(=O)N1CCCCC1 | > 30 |
| O=C(Nc1ccc2nc(SCc3ccccc3)sc2c1)c1ccccc1C(=O)N1CCOCC1 | 7.23 |

Continued, values first:

| IC50 [µM] | Compound |
| --- | --- |
| > 30 | O=C(Nc1ccc2nc(SCc3ccncc3)sc2c1)c1ccccc1C(=O)N1CCOCC1 |
| 5.24 | O=C(Nc1ccc2nc(S(=O)(=O)Cc3ccc(Cl)cc3)sc2c1)c1ccccc1C(=O)N1CCOCC1 |
| 13 | O=C(Nc1ccc2nc([S+]([O-])Cc3ccc(Cl)cc3)sc2c1)c1ccccc1C(=O)N1CCOCC1 (stereo not drawn) |
| 4.56 | O=C(Nc1ccc2nc(SCc3ccc(Cl)cc3)sc2c1)c1ccccc1C(=O)N1CCOCC1 |
| > 30 | O=C(Nc1ccc2nc(SCc3ccc(Cl)cc3)[nH]c2c1)c1ccccc1C(=O)N1CCOCC1 |
| > 30 | O=C(Nc1ccc2nc([S@@+]([O-])Cc3ccc(Cl)cc3)sc2c1)c1ccccc1C(=O)N1CCOCC1 |
